Assay results: patent publication US20100144674A1, “PYRIDAZINE DERIVATIVES” (SYNGENTA CROP PROTECTION, INC., priority 2006, published 2010)

Experiments:
[1] = system: Pyrenophora Teres (Helminthosporium Teres); test: Pyrenophora teres (Helminthosporium teres) / barley / preventive (net blotch); format: in vivo; details: 96 h, preventive spray, barley plants cv. Regina, assessed 4 days after inoculation, read-out: inhibit fungal infestation
Description: Pyrenophora Teres (Helminthosporium Teres)/Barley/Preventive (Action Against Net Blotch on Barley) 1-week-old barley plants cv. Regina are treated with the formulated test compound in a spray chamber. Two days after application barley plants are inoculated by spraying a spore suspension (2.6×10^4 conidia/ml) on the test plants. After an incubation period of 4 days at 20° C. and 95% r. h. the disease incidence is assessed.

Puccinia Recondita = test: Puccinia recondita / wheat / preventive (brown rust); format: in vivo; details: 264 h, preventive spray, wheat plants cv. Arina, assessed 11 days after inoculation, read-out: inhibits fungal infestation
Description: Puccinia Recondita/Wheat/Preventive (Action Against Brown Rust on Wheat) 1 week old wheat plants cv. Arina are treated with the formulated test compound in a spray chamber. One day after application wheat plants are inoculated by spraying a spore suspension ([…] uredospores/ml) on the test plants. After an incubation period of 1 day at 20° C. and 95% r. h. plants are kept for 10 days 20° C./18° C. (day/night) and 60% r.h. in a greenhouse. The disease incidence is assessed 11 days after inoculation.

Septoria Tritici = test: Septoria tritici / wheat / preventive (Septoria leaf spot); format: in vivo; details: Zymoseptoria tritici, preventive spray, wheat plants cv. Riband, assessed 16-18 days after inoculation, read-out: inhibits fungal infestation
Description: Septoria Tritici/Wheat/Preventive (Action Against Septoria Leaf Spot on Wheat) 2 weeks old wheat plants cv. Riband are treated with the formulated test compound in a spray chamber. One day after application wheat plants are inoculated by spraying a spore suspension (10^6 conidia/ml) on the test plants. After an incubation period of 1 day at 22° C./21° C. and 95% r. h. plants are kept at 22° C./21° C. and 70% r.h. in a greenhouse. The disease incidence is assessed 16-18 days after inoculation.

Botrytis Cinerea = test: Botrytis cinerea / tomato / preventive; format: in vivo; details: 72 h, preventive spray, tomato plants cv. Roter Gnom, assessed 3 days after inoculation, read-out: inhibit fungal infestation
Description: (§1) Botrytis Cinerea/Tomato/Preventive (Action Against Botrytis on Tomato) 4 weeks old tomato plants cv. Roter Gnom are treated with the formulated test compound in a spray chamber. Two days after application tomato plants are inoculated by spraying a spore suspension on the test plants. After an incubation period of 3 days at 20° C. and 95% r. h. in a greenhouse the disease incidence is assessed.

[2] = system: Magnaporthe Grisea (Pyricularia Oryzae); test: whole plant or invertebrate; format: in vivo; details: 144 h, read-out: inhibit fungal infestation
Uncinula Necator = test: Uncinula necator / grape / preventive (powdery mildew); format: in vivo; details: Erysiphe necator, 168 h, preventive spray, grape seedlings cv. Gutedel, assessed 7 days after inoculation, read-out: inhibit fungal infestation
Description: Uncinula Necator/Grape/Preventive (Action Against Powdery Mildew on Grape) 5 weeks old grape seedlings cv. Gutedel are treated with the formulated test compound in a spray chamber. One day after application grape plants are inoculated by shaking plants infected with grape powdery mildew above the test plants. After an incubation period of 7 days at 24° C./22° C. and 70% r. h. under a light regime of 14/10 h (light/dark) the disease incidence is assessed.

Alternaria Solani = test: Alternaria solani / tomato / preventive; format: in vivo; details: 96 h, preventive spray, tomato plants cv. Roter Gnom, assessed 4 days after inoculation, read-out: inhibit fungal infestation
Description: as §1, with “Alternaria Solani/Tomato/Preventive” for “Botrytis Cinerea/Tomato/Preventive”, “Alternaria” for “Botrytis”, “4” for “3”, “22° C./18°” for “20°”

Compound | inhibition at 200 ppm [1] [%] | inhibition at 200 ppm (Puccinia Recondita) [%] | melting point [°C] | inhibition at 200 ppm (Septoria Tritici) [%] | inhibition at 200 ppm (Botrytis Cinerea) [%] | inhibition at 200 ppm [2] [%] | inhibition at 200 ppm (Uncinula Necator) [%] | inhibition at 200 ppm (Alternaria Solani) [%]
Cc1nnc(F)c(-c2c(F)cc(F)cc2F)c1-c1ccc2ccccc2c1 [I.ae.197, 3-fluoro-6-methyl-5-naphthalen-2-yl-4-(2,4,6-trifluorophenyl)-pyridazine] | ≥ 80 | ≥ 80 | 108 to 110 | ≥ 80 | ≥ 80 | ≥ 80 |  | 
COc1nnc(C)c(-c2ccc3ccccc3c2)c1-c1c(F)cccc1Cl [I.ae.079, 4-(2-chloro-6-fluorophenyl)-3-methoxy-6-methyl-5-naphthalen-2-yl-pyridazine] |  |  | 182 to 184 |  | ≥ 80 | ≥ 80 | ≥ 80 | 
Cc1nnc(C)c(-c2c(F)cccc2Cl)c1-c1ccc2ccccc2c1 [I.ae.080, 4-(2-chloro-6-fluorophenyl)-3,6-dimethyl-5-naphthalen-2-yl-pyridazine] |  |  | 120 to 123 | ≥ 80 |  | ≥ 80 |  | ≥ 80
Cc1nnc(Cl)c(-c2c(F)cc(F)cc2F)c1-c1ccc2ccccc2c1 [I.ae.198, 3-chloro-6-methyl-5-naphthalen-2-yl-4-(2,4,6-trifluorophenyl)-pyridazine] | ≥ 80 | ≥ 80 | 86 to 89 | ≥ 80 | ≥ 80 | ≥ 80 | ≥ 80 | ≥ 80
Cc1n[nH]c(=O)c(-c2c(F)cc(F)cc2F)c1-c1ccc2ccccc2c1 [I.ae.196, 6-methyl-5-naphthalen-2-yl-4-(2,4,6-trifluorophenyl)-2H-pyridazin-3-one] |  |  | 266 to 268 |  |  |  |  | 
COc1nnc(C)c(-c2ccc3ccccc3c2)c1-c1c(F)cc(F)cc1F [I.ae.199, 3-methoxy-6-methyl-5-naphthalen-2-yl-4-(2,4,6-trifluorophenyl)-pyridazine] | ≥ 80 |  | 138 to 140 |  | ≥ 80 |  | ≥ 80 | ≥ 80
